{"source": "patent US10499648B2", "about": "“Sterilization method, formulation for sterilization use, and device for producing sterilizing liquid” (priority 2014, dated 2019)", "key": {"[1]": {"conditions": "equilibrium O2-. + H+ <-> HOO.; cited from earlier work"}, "Escherichia coli": {"system": "Escherichia coli", "test": "Sterilization effect of synthesized peroxynitric acid on Escherichia coli (FIG. 8)", "assay_type": "cell-based", "conditions": "peroxynitric acid approximately 0.02 mM or higher; pH 3.5; 25° C.; from 7 orders to 2 orders or less (detection limit)", "protocol": "In FIGS. 8, 9, and 11, solution of peroxynitric acid has a pH value of 3.5 and a temperature of 25° C. In the heat treatment of FIG. 10, the solution of peroxynitric acid is heated for thirty minutes to have a temperature of 60° C.\n(§1) In this experiment, the detection limit was reached when the number of living microorganisms was in 2 orders of magnitude or less, then further sterilization effect was not measured. Thus, if the concentration of the synthesized peroxynitric acid is further increased, the number of living microorganisms is expected to be further reduced. In the experiment, diluted solution of the synthesized peroxynitric acid was used. If undiluted solution is used, more powerful microbicidal activity is expected to be exerted. The peroxynitric acid synthesized in the fourth embodiment has a concentration of 420 mM. For example, using undiluted solution of the synthesized peroxynitric acid probably lowers the number of living microorganisms to further […] of magnitude or more."}, "Bacillus subtilis spore": {"system": "Bacillus subtilis spore", "test": "Sterilization effect of synthesized peroxynitric acid on Bacillus subtilis spore (FIGS. 9-11)", "assay_type": "cell-based", "conditions": "for drop of the number of living microorganisms in Bacillus subtilis spore: peroxynitric acid approximately 0.5 mM or higher, pH 3.5", "protocol": "Where the solution of the synthesized peroxynitric acid has a pH value of 3.5 and the peroxynitric acid has a concentration of approximately 0.5 mM or higher, the number of living microorganisms in Bacillus subtilis spore drops from 6 orders of magnitude to 2 orders of magnitude or less, which indicates a drop of 4 orders of magnitude or more.\nas §1"}, "[2]": {"test": "Lifetime / decomposition of synthesized peroxynitric acid depending on temperature", "assay_type": "physicochemical", "conditions": "solution at 0° C.", "source_text": "The synthesis reaction of peroxynitric acid progresses also at a room temperature. To be specific, peroxynitric acid is synthesized at a room temperature; however, the lifetime of the synthesized peroxynitric acid depends on temperature. Where being saved at a room temperature, the synthesized peroxynitric acid is quickly decomposed to turn into nitric acid in a short time. When the temperature rises by 5 degrees, the rate of decomposition doubles. For example, the rate of decomposition at a temperature of 20° C. is 16 times as fast as that at a temperature of 0° C. (zero). Thus, the synthesized peroxynitric acid turns into nitric acid solution very quickly at a temperature of 50° C. The half-life of the peroxynitric acid is 10 minutes or so at a room temperature. The half-life of the peroxynitric acid is a few hours (2 to 3 hours or so) at a temperature of 0 (zero) degrees.\nIn order to preserve the solution with the biocidal activity maintained, it is preferable to set the temperature of the solution as low as possible. For example, the solution is adjusted to have a temperature of 0° C., which enables the solution to be stored/preserved for a couple of hours, for example, for 5 to 8 hours or so. Freezing the solution allow the solution to be preserved for a longer time."}, "[3]": {"test": "Activation energy in decomposition response, compared with literature value", "assay_type": "physicochemical", "protocol": "As for the substance corresponding to the retention time RT of 2.8 minutes shown in FIG. 5, an activation energy in decomposition response thereof was actually measured. The activation energy measured was compared to an activation energy in decomposition response of peroxynitric acid. The comparison result is provided as follows: • Actual measured value: 109 kJ/mol • Literature value: 110 kJ/mol • Both the values are in good accord with each other. Thereby, the substance corresponding to the retention time RT of 2.8 minutes is probably peroxynitric acid.\nThe activation energy in decomposition response herein was cited from the following document.\nJ. Phys. Chem. A 1997, 101, 8822-8829 “Peroxynitric Acid Decay Mechanisms and Kinetics at Low pH”."}, "[4]": {"test": "Time needed for sterilization depending on solution temperature", "conditions": "solution temperature 30° C.", "protocol": "Where the solution has a temperature of 10° C. or lower, the solution may be applied to an object to be sterilized with the temperature remaining unchanged. It is also possible to raise the temperature of the solution to 20° C. or more at the time of application of the solution to the object to be sterilized. It is preferable for the solution to have a lower temperature in order to preserve peroxynitric acid, but at the same time, is preferable for the solution to have a certain level of high temperature for sterilization. To be specific, while the solution having a temperature of 0° C. needs time to sterilize the object, the solution having a temperature of 30° C. needs only 20 seconds to sufficiently sterilize the object. When the situation permits to take time to sterilize the object, it is preferable to perform sterilization at a low temperature. When quick sterilization is needed, it is preferable to raise the temperature, for example, to 30 through 40° C."}, "[5]": {"test": "Sterilization effect after adding enzyme for disappearing superoxide anion radicals", "source_text": "The peroxynitric acid in the solution is probably a precursor which produces the superoxide anion radicals (O2—.). The superoxide anion radicals (O2—.) are probably precursors which produce the hydroperoxy radicals (HOO.)."}, "[6]": {"conditions": "J. Phys. Chem. A 1997, 101, 8822-8829; cited from earlier work"}}}
{"compound": "[O]O", "note": "[hydroperoxy radicals (HOO.), hydroperoxy radicals]", "values": [{"measurement": "pKa (acid dissociation constant)", "setting": "[1]", "result": 4.8}]}
{"compound": "peroxynitric acid", "values": [{"measurement": "drop of the fungicidal concentration (number of living microorganisms) of Escherichia coli", "setting": "Escherichia coli", "result": "≥ 5", "unit": "orders"}, {"measurement": "drop of the number of living microorganisms in Bacillus subtilis spore", "setting": "Bacillus subtilis spore; FIG. 9, 25° C., from 6 orders to 2 orders or less (detection limit)", "result": "≥ 4", "unit": "orders"}, {"measurement": "drop of the number of living microorganisms in Bacillus subtilis spore", "setting": "Bacillus subtilis spore; FIG. 10", "result": "≥ 4 orders of magnitude"}, {"measurement": "number of living microorganisms in Bacillus subtilis spore", "setting": "Bacillus subtilis spore; FIG. 10, solution pH 6.5, stays in 6 orders of magnitude", "result": "approximately constant independently of the concentration of the peroxynitric acid"}, {"measurement": "sterilization effect on Bacillus subtilis spore after heat treatment", "setting": "Bacillus subtilis spore; FIG. 11, peroxynitric acid heated thirty minutes to 60° C., count stays in 6 orders of magnitude", "result": "disappearance of sterilization effect"}, {"measurement": "time the solution can be stored/preserved with biocidal activity maintained", "setting": "[2]", "result": "5 to 8", "unit": "h"}, {"measurement": "activation energy in decomposition response, actual measured value", "setting": "[3]", "result": 26.1, "unit": "kcal/mol"}, {"measurement": "time needed to sufficiently sterilize the object", "setting": "[4]", "result": 20, "unit": "s"}, {"measurement": "sterilization effect with enzyme for disappearing superoxide anion radicals in the solution", "setting": "[5]", "result": "sterilization effect is not observed"}, {"measurement": "activation energy in decomposition response, literature value", "setting": "[6]", "result": 26.3, "unit": "kcal/mol"}]}
